Laboratory results taken from PubChem BioAssay AID1963871 (Molecular Pharmacology Branch, DTP, NCI, 2024).

System: KRAS-mutant PDC multicell tumor spheroid viability
Assay: Anticancer human tumor 521955-158-R2-J5-PDC patient-derived pancreatic carcinoma cell line growth inhibition [KRAS2]
Details: for IC50: curve of first compound; for viability, T/C: stronger effect = lower value
Method in brief: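 Combination screen of spheroid viability in tumor-cell co-cultures with endothelial (HUVEC) and mesenchymal stem cell stroma. Each agent was tested in half-log dilutions, topping at clinical Cmax or at 10 microM without a known Cmax.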

[1] = second compound 0.0316 µM, first compound 0.0316 µM
[2] = second compound 0.0316 µM, first compound 0.1 µM
[3] = second compound 0.0316 µM, first compound 0.316 µM
[4] = second compound 0.0316 µM, first compound 1 µM
[5] = second compound 0.0316 µM, first compound 3.16 µM
[6] = second compound 0.0316 µM, first compound 10 µM
[7] = second compound 0.1 µM, first compound 0.0316 µM
[8] = second compound 0.1 µM, first compound 0.1 µM
[9] = second compound 0.1 µM, first compound 0.316 µM
[10] = second compound 0.1 µM, first compound 1 µM
[11] = second compound 0.1 µM, first compound 3.16 µM
[12] = second compound 0.1 µM, first compound 10 µM
[13] = second compound 0.316 µM, first compound 0.0316 µM
[14] = second compound 0.316 µM, first compound 0.1 µM
[15] = second compound 0.316 µM, first compound 0.316 µM
[16] = second compound 0.316 µM, first compound 1 µM
[17] = second compound 0.316 µM, first compound 3.16 µM
[18] = second compound 0.316 µM, first compound 10 µM
[19] = second compound 1 µM, first compound 0.0316 µM
[20] = second compound 1 µM, first compound 0.1 µM
[21] = second compound 1 µM, first compound 0.316 µM
[22] = second compound 1 µM, first compound 1 µM
[23] = second compound 1 µM, first compound 3.16 µM
[24] = second compound 1 µM, first compound 10 µM
[25] = second compound 3.16 µM, first compound 0.0316 µM
[26] = second compound 3.16 µM, first compound 0.1 µM
[27] = second compound 3.16 µM, first compound 0.316 µM
[28] = second compound 3.16 µM, first compound 1 µM
[29] = second compound 3.16 µM, first compound 3.16 µM
[30] = second compound 3.16 µM, first compound 10 µM
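Further: viability read after seven days of drug exposure.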

Row | SMILES | IC50 (second compound 0.0316 µM) | IC50 (second compound 0.1 µM) | IC50 (second compound 0.316 µM) | IC50 (second compound 1 µM) | IC50 (second compound 3.16 µM) | viability, T/C [1] | viability, T/C [2] | viability, T/C [3] | viability, T/C [4] | viability, T/C [5] | viability, T/C [6] | viability, T/C [7] | viability, T/C [8] | viability, T/C [9] | viability, T/C [10] | viability, T/C [11] | viability, T/C [12] | viability, T/C [13] | viability, T/C [14] | viability, T/C [15] | further results
1 | COc1cc(Nc2ncc3c(n2)-c2ccc(Cl)cc2C(c2c(F)cccc2OC)=NC3)ccc1C(=O)O + C=CC(=O)N1CCN(c2nc(OCC3CCCN3C)nc3c2CCN(c2cccc4cccc(C)c24)C3)CC1CC#N | < 0.0316 µM | < 0.0316 µM | < 0.0316 µM | < 0.0316 µM | < 0.0316 µM | 41.5% | 33.7% | 50.5% | 46.2% | 38.5% | 40.5% | 51.1% | 28.1% | 38.4% | 36.3% | 38.9% | 38.2% | 48.5% | 27.2% | 31.6% | viability, T/C [16]: 38.8%; viability, T/C [17]: 33.8%; viability, T/C [18]: 42.2%; viability, T/C [19]: 28.8%; viability, T/C [20]: 28.7%; viability, T/C [21]: 29.1%; viability, T/C [22]: 27.7%; viability, T/C [23]: 26.9%; viability, T/C [24]: 32%; viability, T/C [25]: 1.52%; viability, T/C [26]: 1.29%; viability, T/C [27]: 0.17%; viability, T/C [28]: 6.1%; viability, T/C [29]: 1.44%; viability, T/C [30]: 0.25%
2 | COc1cc2nccc(Oc3ccc(NC(=O)C4(C(=O)Nc5ccc(F)cc5)CC4)cc3)c2cc1OC + C=CC(=O)N1CCN(c2nc(OCC3CCCN3C)nc3c2CCN(c2cccc4cccc(C)c24)C3)CC1CC#N | 8.2 µM | 7.66 µM | 6.6 µM | 2.68 µM | < 0.0316 µM | 111% | 112% | 126% | 124% | 94.6% | 40.7% | 105% | 108% | 118% | 116% | 94.1% | 36.7% | 89.9% | 113% | 108% | viability, T/C [16]: 97.9%; viability, T/C [17]: 82.7%; viability, T/C [18]: 31.7%; viability, T/C [19]: 86.2%; viability, T/C [20]: 95%; viability, T/C [21]: 89.7%; viability, T/C [22]: 81.9%; viability, T/C [23]: 44.7%; viability, T/C [24]: 14.9%; viability, T/C [25]: 19.4%; viability, T/C [26]: 26.7%; viability, T/C [27]: 17.7%; viability, T/C [28]: 4.13%; viability, T/C [29]: 0.96%; viability, T/C [30]: 0.26%
3 | O=C(c1cc(Cc2n[nH]c(=O)c3ccccc23)ccc1F)N1CCN(C(=O)C2CC2)CC1 + C=CC(=O)N1CCN(c2nc(OCC3CCCN3C)nc3c2CCN(c2cccc4cccc(C)c24)C3)CC1CC#N | > 10 µM | > 10 µM | > 10 µM | 6.45 µM | < 0.0316 µM | 104% | 101% | 99.4% | 85.1% | 80.2% | 61.3% | 95.2% | 94.9% | 93.7% | 92.2% | 78.5% | 54% | 94.2% | 92.8% | 84.8% | viability, T/C [16]: 82.9%; viability, T/C [17]: 78.3%; viability, T/C [18]: 59.1%; viability, T/C [19]: 100%; viability, T/C [20]: 101%; viability, T/C [21]: 85%; viability, T/C [22]: 73.3%; viability, T/C [23]: 70%; viability, T/C [24]: 39.5%; viability, T/C [25]: 4.24%; viability, T/C [26]: 1.68%; viability, T/C [27]: 1.74%; viability, T/C [28]: 1.67%; viability, T/C [29]: 2.07%; viability, T/C [30]: 0.32%
